Assay results from patent EP4775208A1, “USE OF PRMT5 INHIBITOR IN TREATMENT OF TUMORS OR CANCERS” (Apeiron Therapeutics (Hong Kong) Ltd., priority 2023, dated 2025).

Assays:
[1] = tested on: HCT-116 MTAP(-/-) deficient cells; test: Inhibition of proliferation of HCT-116 MTAP(-/-) deficient cells (Cell-Titer Glo); format: cell-based; settings: 8 days
In short: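 Cells in log-phase growth, RPMI-1640 with 10% FBS, seeded and left overnight at 37°C, 5% CO2. Compound tested at 0–10,000 nM (10 points, 3-fold, 0.1% DMSO) for 8 days at 37°C, 5% CO2. Viability read by CellTiter-Glo luminescence.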

[2] = tested on: HCT-116 MTAP wild-type cells; test: Inhibition of proliferation of HCT-116 MTAP wild-type cells (Cell-Titer Glo); format: cell-based; settings: 8 days
In short: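 MTAP wild-type HCT-116 cells were seeded, cultured overnight and then exposed to compound from 10,000 nM down in a 10-point, 3-fold series (0.1% DMSO). Plates were incubated 8 days at 37°C, 5% CO2. Proliferation was read by Cell-Titer Glo viability luminescence.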

| Compound | IC50 ([1]; Homo sapiens, HCT-116, 192 h) [nM] | IC50 ([2]; Homo sapiens, HCT-116, 192 h) [nM] | IC50 [1] [nM] | IC50 [2] [nM] |
| --- | --- | --- | --- | --- |
| CN(C(=O)c1ccc2nc(N)c3c(Br)ncn3c2c1)[C@@H]1COc2cc(C(F)(F)F)ccc21 [Example 127, (S)-4-amino-3-bromo-N-methyl-N-(6-(trifluoromethyl)-2,3-dihydrobenzofuran-3-yl)imidazo[1,5-a]quinoxaline-8-carboxamide] | 100 | 9900 | – | – |
| CN(C(=O)c1ccc2nc(N)c3c(CO)ncn3c2c1)[C@@H]1COc2cc(C(F)(F)F)ccc21 [Example 128, (S)-4-amino-3-(hydroxymethyl)-N-methyl-N-(6-(trifluoromethyl)-2,3-dihydrobenzofuran-3-yl)imidazo[1,5-a]quinoxaline-8-carboxamide] | 26 | > 10000 | – | – |
| CN(C(=O)c1cc2c(cc1F)nc(N)c1cncn12)C1CSc2cc(C(F)(F)F)ccc21 (stereo not shown) [Example 129, 4-amino-7-fluoro-N-methyl-N-(6-(trifluoromethyl)-2,3-dihydrobenzo[b]thiophen-3-yl) imidazo[1,5-a]quinox aline-8-carboxamide] | 14.5 | 2680 | – | – |
| CN(C(=O)c1ccc2nc(N)c3c(C#N)ncn3c2c1)[C@@H]1COc2cc(C(F)(F)F)ccc21 [Example 131, (S)-4-amino-3-cyano-N-methyl-N-(6-(trifluoromethyl)-2,3-dihydrobenzofuran-3-yl)imidazo[1,5-a]quinoxaline-8-carboxamide] | > 3000 | > 10000 | – | – |
| CN(C(=O)c1ccc2nc(N)c3c(C(N)=O)ncn3c2c1)[C@@H]1COc2cc(C(F)(F)F)ccc21 [Example 132, (S)-4-amino-N8-methyl-N8-(6-(trifluoromethyl)-2,3-dihydrobenzofuran-3-yl)imidazo[1,5-a]quinoxaline-3,8-dicarboxamide] | > 3000 | > 10000 | – | – |
| (R)-4-amino-7-fluoro-N-methyl-N-(7-(1-(tri fluoromethyl)-1H-pyr azol-4-yl)chroman-4-ylimidazo[1,5-a]quin oxaline-8-carboxamid e [Example 113] | – | – | 88.1 | > 10000 |
| (R)-4-amino-N-(6-bromo-2,3-dihydrobenzofuran-3-yl)-N-cyclopropylimidazo[1,5-a]quinoxaline-8-carboxamide [Example 81] | – | – | 1790 | 2360 |
| (R)-4-amino-N-(6-cya no-2,3-dihydrobenzof uran-3-yl)-N-cyclopro pylimidazo[1,5-a]quin oxaline-8-carboxamid e [Example 91] | – | – | 2180 | > 20000 |
| (R)-4-amino-N-cyclo propyl-N-(6-(trifluoro methyl)-2,3-dihydrob enzofuran-3-yl)imidaz o[1,5-a]pyrido[3,4-e]p yrazine-8-carboxamid e [Example 87] | – | – | 9030 | 10800 |
| (R)-4-amino-N-cyclo propyl-N-(6-(trifluoro methyl)-2,3-dihydrob enzofuran-3-yl)imidaz o[1,5-a]quinoxaline-8 -carboxamide [Example 83] | – | – | 2640 | 4700 |
| (R)-4-amino-N-methy 1-N-(6-(pentafluoro-16 -sulfaneyl)-2,3-dihydr obenzofuran-3-yl)imi dazo[1,5-a]quinoxalin e-8-carboxamide [Example 103] | – | – | 931 | 6260 |
| (R)-4-amino-N-methy 1-N-(6-(trifluoromethy 1)-2,3-dihydrofuro[2,3 -b]pyridin-3-yl)imida zo[1,5-a]quinoxaline-8-carboxamide [Example 89] | – | – | > 3000 | > 10000 |
| (S)-4-amino-N-(6-(cy clopropylsulfonyl)-2,3 -dihydrobenzo[b]thio phen-3-yl)-N-methyli midazo[1,5-a]quinoxa line-8-carboxamide [Example 133] | – | – | 71.4 | > 10000 |
| (S)-4-amino-N-(6-bromo-2,3-dihydrobenzofuran-3-yl)-N-cyclopropylimidazo[1,5-a]quinoxaline-8-carboxamide [Example 82] | – | – | 52.9 | 1920 |
